In ChEMBL document CHEMBL3046212, “Synthesis and immunostimulating activity of C-pseudonucleosides containing N-phenyl thiazolidin-4-one” (2013):

What was measured:
Assay type in all cases: functional, Splenocyte
[1] = Immunostimulatory activity in Balb/c mouse splenocytes assessed as increase in conA-induced T cell proliferation at 50 uM after 72 hrs by MTT assay relative to control
[2] = Immunostimulatory activity in Balb/c mouse splenocytes assessed as increase in conA-induced T cell proliferation at 100 uM after 72 hrs by MTT assay relative to control
[3] = Immunostimulatory activity in Balb/c mouse splenocytes assessed as increase in conA-induced T cell proliferation at 25 uM after 72 hrs by MTT assay relative to control
[4] = Immunostimulatory activity in Balb/c mouse splenocytes assessed as increase in conA-induced T cell proliferation at 5 uM after 72 hrs by MTT assay relative to control
[5] = Immunostimulatory activity in Balb/c mouse splenocytes assessed as increase in conA-induced T cell proliferation at 10 uM after 72 hrs by MTT assay relative to control

Row | SMILES | Activity [1] [%] | Activity [2] [%] | Activity [3] [%] | Activity [4] [%] | Activity [5] [%]
1 | Cc1cccc(N2C(=O)CS[C@H]2[C@H]2O[C@H](CO)[C@@H](O)[C@@H]2O)c1 | 158.7 | 169.8 | 152.4 | 149.2 | 142.1
2 | CCOC(=O)c1ccc(N2C(=O)CS[C@H]2[C@H]2O[C@H](CO)[C@@H](O)[C@@H]2O)cc1 | 136.5 | 142.9 | 161.9 | 153.2 | 136.5
3 | O=C1CS[C@H]([C@H]2O[C@H](CO)[C@@H](O)[C@@H]2O)N1c1ccc(Cl)cc1 | 30.9 | 107.1 | 87.6 | 101.6 | 91.5
4 | O=C1CS[C@@H]([C@H]2O[C@H](CO)[C@@H](O)[C@@H]2O)N1c1ccc(Cl)cc1 | 112.3 | 112.4 | 102.2 | 100 | 101.2
5 | O=C1CS[C@@H]([C@H]2O[C@H](CO)[C@@H](O)[C@@H]2O)N1c1cccc(Cl)c1 | 121.5 | 126 | 130.3 | 139.7 | 138.2
6 | Cc1ccc(N2C(=O)CS[C@H]2[C@H]2O[C@H](CO)[C@@H](O)[C@@H]2O)cc1 | 96.3 | 95.2 | 86.1 | 84.9 | 83.7
7 | O=C1CS[C@H]([C@H]2O[C@H](CO)[C@@H](O)[C@@H]2O)N1c1cccc(Cl)c1 | 161.1 | 144.4 | 158.7 | 162.2 | 155.6
8 | CCOC(=O)c1ccc(N2C(=O)CS[C@@H]2[C@H]2O[C@H](CO)[C@@H](O)[C@@H]2O)cc1 | 206.3 | 180.2 | 126.2 | 132.5 | 177
9 | Cc1cccc(N2C(=O)CS[C@@H]2[C@H]2O[C@H](CO)[C@@H](O)[C@@H]2O)c1 | 134.9 | 160.3 | 157.9 | 163.5 | 155.6
10 | COc1cccc(N2C(=O)CS[C@H]2[C@H]2O[C@H](CO)[C@@H](O)[C@@H]2O)c1 | 147.6 | 162.7 | 156.3 | 146 | 134.1
11 | COc1ccc(N2C(=O)CS[C@@H]2[C@H]2O[C@H](CO)[C@@H](O)[C@@H]2O)cc1 | 93.6 | 99.6 | 97.2 | 108.8 | 105.2
12 | Cc1ccc(N2C(=O)CS[C@@H]2[C@H]2O[C@H](CO)[C@@H](O)[C@@H]2O)cc1 | 104 | 105.6 | 95.6 | 91.2 | 110
13 | COc1cccc(N2C(=O)CS[C@@H]2[C@H]2O[C@H](CO)[C@@H](O)[C@@H]2O)c1 | 158.7 | 125.4 | 129.3 | 17.6 | 165.1
14 | COc1ccc(N2C(=O)CS[C@H]2[C@H]2O[C@H](CO)[C@@H](O)[C@@H]2O)cc1 | 103.2 | 99.2 | 106.8 |  | 106.8
